Experimental data taken from patent US10759721B2, “Deuterated CFTR potentiators” (Vertex Pharmaceuticals (Europe) Limited, priority 2015, dated 2020).
Where two headings read alike, the source gives them in different places.

Assays:
[1] = biological target: T1, human CYP3A4 Supersomes (Homo sapiens, UniProt P08684); experiment: Metabolic stability in human CYP3A4 Supersomes; assay type: in vitro ADME; details: for average increase in t1/2 / apparent intrinsic clearance ratio: human CYP3A4 Supersomes; for Clint, app rCYP: human CYP3A4 Supersomes 50 pmol/mL, 0.25 μM test compound, CL int = (0.693/in vitro t1/2)(mL incubation volume/pmol P450)
T1 construct: purchased BD Biosciences
T1 sequence (P08684 whole entry): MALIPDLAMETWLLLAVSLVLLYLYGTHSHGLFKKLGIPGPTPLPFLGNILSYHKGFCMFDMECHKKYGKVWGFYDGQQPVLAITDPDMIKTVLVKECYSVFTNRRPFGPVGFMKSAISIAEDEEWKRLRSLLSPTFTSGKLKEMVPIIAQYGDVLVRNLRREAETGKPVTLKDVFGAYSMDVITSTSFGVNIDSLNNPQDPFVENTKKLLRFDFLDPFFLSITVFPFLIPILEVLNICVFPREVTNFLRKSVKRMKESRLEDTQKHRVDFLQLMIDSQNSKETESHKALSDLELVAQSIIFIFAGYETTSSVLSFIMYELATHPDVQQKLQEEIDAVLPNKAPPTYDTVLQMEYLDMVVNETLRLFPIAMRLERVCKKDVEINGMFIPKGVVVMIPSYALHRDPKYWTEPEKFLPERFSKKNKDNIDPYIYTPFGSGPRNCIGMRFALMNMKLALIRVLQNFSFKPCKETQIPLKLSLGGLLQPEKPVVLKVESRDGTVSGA
Experimental: (§1) Stock solutions (7.5 mM) of Compound 100 and Compound A were prepared in DMSO. The 7.5 mM stock solutions were diluted to 12.5 μM in acetonitrile (ACN). The human CYP3A4 Supersomes™ (2000 pmol/mL, purchased from BD Biosciences™) were diluted to 62.5 pmol/mL in 0.1 M potassium phosphate buffer, pH 7.4, containing 3 mM MgCl2. The diluted supersomes were added to wells of a 96-well polypropylene plate in triplicate. A 10 μL aliquot of the 12.5 μM test compound was added to the supersomes and the mixture was pre-warmed for 10 minutes. Reactions were initiated by addition of pre-warmed NADPH solution. The final reaction volume was 0.5 mL and contained 50 pmol/mL CYP3A4 Supersomes™, 0.25 μM test compound, and 2 mM NADPH in 0.1 M potassium phosphate buffer, pH 7.4, and 3 mM MgCl2. The reaction mixtures were incubated at 37° C., and 50 μL aliquots were removed at 0, 3, 7, 10, 20 and 30 minutes and added to 96-well plates which contained 125 μL of ice-cold ACN with internal standard to stop the reactions. The plates were stored at 4° C. for 20 minutes after which 75 μL of water was added to the wells of the plate before centrifugation to pellet precipitated proteins. Supernatants were transferred to another 96-well plate and analyzed for amounts of parent remaining by LC-MS/MS using an AB Sciex QTrap 5500 mass spectrometer.
(§2) The in vitro half-lives (t1/2 values) for test compounds were calculated from the slopes of the linear regression of LN (% parent remaining) vs incubation time relationship: in vitro t1/2=0.693/k, where k=−[slope of linear regression of LN (% parent remaining) vs incubation time].
as §1, with “Compound 120” for “Compound 100”, “Compound B” for “Compound A”

[2] = biological target: T2, CYP3A4 (Homo sapiens, UniProt P08684); experiment: Metabolic stability in human CYP3A4 Supersomes; assay type: in vitro ADME; details: recombinant human CYP3A4 Supersomes, pH 7.4, human CYP3A4 Supersomes, read-out: calculated average half-life
T2 construct: purchased BD Biosciences
T2 sequence (P08684 whole entry): as above
Experimental: as §1, §2
as §1, with “Compound 120” for “Compound 100”, “Compound B” for “Compound A”

[3] = system: patients with cystic fibrosis carrying at least one copy of the G551D-CFTR mutation; details: phase III trials; cited from earlier work

Compound	Clint, app rCYP ([1]; Table 2)	half-life at 0.25 μM ([2]; text of Example 3)	Clint, app rCYP ([1]; Table 3)	half-life at 0.25 μM ([2]; Example 4)	also measured
[2H]C([2H])([2H])C(c1ccc(NC(=O)c2c[nH]c3ccccc3c2=O)cc1O)(C([2H])([2H])[2H])C([2H])([2H])[2H] [Compound 100, N-(3-Hydroxy-4-(2-(methyl-d3)propan-2-yl-1,1,1,3,3,3-d6)phenyl)-4-oxo-1,4-dihydroquinoline-3-carboxamide]	0.26 ± 0.00 µL/min/pmol	26.5 min			average increase in t1/2 ([1]; Compound 100 relative to Compound A): 75%; apparent intrinsic clearance ratio ([1]; ratio 100/A): 0.57; stability in Human CYP3A4 Supersomes relative to Compound A ([1]; relative to Compound A): more stable
[2H]C([2H])([2H])C(c1cc(C(F)(F)F)c(NC(=O)c2c[nH]c3ccccc3c2=O)cc1O)(C([2H])([2H])[2H])C([2H])([2H])[2H] [Compound 120, N-(5-hydroxy-4-(2-(methyl-d3)propan-2-yl-1,1,1,3,3,3-d6)-2-(trifluoromethyl)phenyl)-4-oxo-1,4-dihydroquinoline-3-carboxamide]			0.34 ± 0.00 µL/min/pmol	20.6 min	average increase in t1/2 ([1]; Compound 120 relative to Compound B): 42%; apparent intrinsic clearance ratio ([1]; ratio 120/B): 0.71; stability in Human CYP3A4 Supersomes relative to Compound B ([1]; relative to Compound B): more stable
CC(C)(C)c1ccc(NC(=O)c2c[nH]c3ccccc3c2=O)cc1O [Compound A, N-(4-(tert-butyl)-3-hydroxyphenyl)-4-oxo-1,4-dihydroquinoline-3-carboxamide, reference compound]	0.46 ± 0.02 µL/min/pmol	15.1 min			
CC(C)(C)c1cc(C(F)(F)F)c(NC(=O)c2c[nH]c3ccccc3c2=O)cc1O [Compound B, N-(4-(tert-butyl)-5-hydroxy-2-(trifluoromethyl)phenyl)-4-oxo-1,4-dihydroquinoline-3-carboxamide, reference compound]			0.48 ± 0.06 µL/min/pmol	14.5 min	
CC(C)(C)c1cc(C(C)(C)C)c(NC(=O)c2c[nH]c3ccccc3c2=O)cc1O [VX-770, N-(2,4-di-tert-butyl-5-hydroxyphenyl)-4-oxo-1,4-dihydroquinoline-3-carboxamide]					improvement in lung function and other key indicators of the disease (sweat chloride levels, likelihood of pulmonary exacerbations, body weight) [3]: marked levels of improvement
